We go through 28 compounds from patent US20240247015A1, “PHOSPHORUS DERIVATIVES AS NOVEL SOS1 INHIBITORS” (BAYER AKTIENGESELLSCHAFT, priority 2021, published 2024).

In the assay the target is interaction of human SOS1 (SOS1) with human K-RasG12C (Homo sapiens (Human), UniProt Q07889). The assay can be described thus: Biochemical assay: hK-RasG12C interaction assay with hSOS1 (HTRF). The assay is classed as binding. To be noted: GST-hK-RasG12C with His-hSOS1, 60 min incubation at 20° C., mean, read-out: K-RasG12C - SOS interaction assay IC50 (mean). The method in brief:
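Compounds, duplicates at 11 concentrations from 0.073 nM to 20 µM, were preincubated 2 min with 10 nM GST-hK-RasG12C, then 20 nM His-hSOS1 was added, all at 20 °C. After 60 min, 665/620 nm HTRF ratio normalized to DMSO and SOS1-free controls; IC50 by 4-parameter fit.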
Background: In TR-FRET formats the signal depends on donor and acceptor labels being close together.

interaction of human SOS1 (SOS1) with human K-RasG12C, sequence (Q07889 564-1049 limits assumed): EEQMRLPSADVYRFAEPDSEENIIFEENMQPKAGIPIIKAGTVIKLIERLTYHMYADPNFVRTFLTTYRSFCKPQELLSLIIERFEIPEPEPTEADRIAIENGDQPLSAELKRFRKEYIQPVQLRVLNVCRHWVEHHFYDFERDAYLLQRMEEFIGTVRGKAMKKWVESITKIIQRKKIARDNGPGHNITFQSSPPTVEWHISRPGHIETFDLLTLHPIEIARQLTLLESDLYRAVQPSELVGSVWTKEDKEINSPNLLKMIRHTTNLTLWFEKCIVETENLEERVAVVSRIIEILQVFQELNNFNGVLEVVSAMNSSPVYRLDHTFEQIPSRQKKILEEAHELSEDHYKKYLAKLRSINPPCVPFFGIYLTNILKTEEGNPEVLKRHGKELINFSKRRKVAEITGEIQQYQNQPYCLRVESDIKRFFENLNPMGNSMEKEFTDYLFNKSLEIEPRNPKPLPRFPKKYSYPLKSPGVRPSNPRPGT

The term IC50 denotes the concentration that inhibits the measured activity by half. For the compound `CCP(=O)(CC)c1cc2c(N[C@H](C)c3cccc(C(F)(F)F)c3C)nc(C)nc2cn1` [Example 96, 6-(diethylphosphoryl)-2-methyl-N-{(1R)-1-[2-methyl-3-(trifluoromethyl)phenyl]ethyl}pyrido[3,4-d]pyrimidin-4-amine], the IC50 is 50.2 nM. Regarding `Cc1nc(N[C@H](C)c2cc(N)cc(C(F)(F)F)c2)c2cc(P(C)(C)=O)ncc2n1` [Example 97, N-{(1R)-1-[3-amino-5-(trifluoromethyl)phenyl]ethyl}-6-(dimethylphosphoryl)-2-methylpyrido[3,4-d]pyrimidin-4-amine], the IC50 was found to be 13.6 nM. Under `Cc1nc(N[C@H](C)c2cccc(C(F)(F)F)c2C)c2cc(P(=O)(C(C)C)C(C)C)ncc2n1` [Example 98, 6-[di(propan-2-yl)phosphoryl]-2-methyl-N-{(1R)-1-[2-methyl-3-(trifluoromethyl)phenyl]ethyl}pyrido[3,4-d]pyrimidin-4-amine] stands 139 nM; under `Cc1nc(N[C@H](C)c2cccc(C(F)(F)F)c2C)c2cc(P3(=O)CCCC3)ncc2n1` [Example 99, 1-[2-methyl-4-{{(1R)-1-[2-methyl-3-(trifluoromethyl)phenyl]ethyl}amino)pyrido[3,4-d]pyrimidin-6-yl]-1lambda^5-phospholan-1-one], 32.1 nM. The same measure for `Cc1nc(N[C@H](C)c2cccc(C(F)(F)F)c2C)c2cc(P3(=O)CCCC3)c(C)nc2n1` [Example 100, 1-[2,7-dimethyl-4-{{(1R)-1-[2-methyl-3-(trifluoromethyl)phenyl]ethyl}amino)pyrido[2,3-d]pyrimidin-6-yl]-1lambda^5-phospholan-1-one]: 4.89 nM; for `COc1nc2nc(C)nc(N[C@H](C)c3cccc(C(F)(F)F)c3C)c2cc1P(C)(C)=O` [Example 101, 6-(dimethylphosphoryl)-7-methoxy-2-methyl-N-{(1R)-1-[2-methyl-3-(trifluoromethyl)phenyl]ethyl}pyrido[2,3-d]pyrimidin-4-amine]: 17.5 nM; for `Cc1nc(N[C@H](C)c2cccc(C(F)(F)F)c2C)c2cc(P(=O)(C(C)C)C(C)C)c(C)nc2n1` [Example 102, 6-[di(propan-2-yl)phosphoryl]-2,7-dimethyl-N-{(1R)-1-[2-methyl-3-(trifluoromethyl)phenyl]ethyl}pyrido[2,3-d]pyrimidin-4-amine]: 80.2 nM. As to `CCP(=O)(CC)c1cnc2nc(C)nc(N[C@H](C)c3cccc(C(F)(F)C(C)(C)O)c3F)c2c1` [Example 103, 1-{3-[(1R)-1-{[6-(diethylphosphoryl)-2-methylpyrido[2,3-d]pyrimidin-4-yl]amino}ethyl]-2-fluorophenyl}-1,1-difluoro-2-methylpropan-2-ol], the IC50 came out at 14.2 nM.

As to `Cc1nc(N[C@H](C)c2cccc(C(F)(F)F)c2C)c2cc(P3(=O)CCCC3)ccc2n1` [Example 104, 1-[2-methyl-4-{{(1R)-1-[2-methyl-3-(trifluoromethyl)phenyl]ethyl}amino)quinazolin-6-yl]-1lambda^5-phospholan-1-one], the IC50 is 18.8 nM. As to `Cc1nc(N[C@H](C)c2cccc(C(F)(F)F)c2C)c2cc(P3(=O)CCN(Cc4ccccc4)CC3)ccc2n1` [Example 105, 1-benzyl-4-[2-methyl-4-({(1R)-1-[2-methyl-3-(trifluoromethyl)phenyl]ethyl}amino)quinazolin-6-yl]-1,4lambda^5-azaphosphinan-4-one], the IC50 is 117 nM.

On to `Cc1nc(N[C@H](C)c2cccc(C(F)(F)F)c2C)c2cc(P(C)(C)=O)ccc2n1` [Example 106, 6-(dimethylphosphoryl)-2-methyl-N-{(1R)-1-[2-methyl-3-(trifluoromethyl)phenyl]ethyl}quinazolin-4-amine], for which the IC50 was found to be 16.1 nM. Under `Cc1nc(N[C@H](C)c2cccc(C(F)F)c2F)c2cc(P3(=O)CCCC3)ncc2n1` [Example 107, 1-[4-{{(1R)-1-[3-(difluoromethyl)-2-fluorophenyl]ethyl}amino)-2-methylpyrido[3,4-d]pyrimidin-6-yl]-1lambda^5-phospholan-1-one] stands 20.5 nM; under `Cc1nc(N[C@H](C)c2cccc(C(F)F)c2F)c2cc(P(=O)(C(C)C)C(C)C)ncc2n1` [Example 108, N-{(1R)-1-[3-(difluoromethyl)-2-fluorophenyl]ethyl}-6-[di(propan-2-yl)phosphoryl]-2-methylpyrido[3,4-d]pyrimidin-4-amine], 153 nM. Turning to `Cc1nc(N[C@H](C)c2cccc(C(F)(F)C(=O)C(C)C)c2F)c2cc(P(C)(C)=O)ncc2n1` [Example 109, 1-{3-[(1R)-1-{[6-(dimethylphosphoryl)-2-methylpyrido[3,4-d]pyrimidin-4-yl]amino}ethyl]-2-fluorophenyl}-1,1-difluoro-3-methylbutan-2-one], the IC50 amounted to 33.3 nM. Under `Cc1nc(N[C@H](C)c2cccc(C(F)(F)C(=O)C(C)(C)C)c2F)c2cc(P(C)(C)=O)ncc2n1` [Example 110, 1-{3-[(1R)-1-{[6-(dimethylphosphoryl)-2-methylpyrido[3,4-d]pyrimidin-4-yl]amino}ethyl]-2-fluorophenyl}-1,1-difluoro-3,3-dimethylbutan-2-one] stands 56.8 nM; under `Cc1nc(N[C@H](C)c2cccc(C(F)F)c2F)c2cc(P(C)(=O)C(C)C)ncc2n1` (stereo partly drawn) [Example 114, N-{(1R)-1-[3-(difluoromethyl)-2-fluorophenyl]ethyl}-2-methyl-6-[methyl(propan-2-yl)phosphoryl]pyrido[3,4-d]pyrimidin-4-amine], 66.5 nM; under `CCP(C)(=O)c1cc2c(N[C@H](C)c3cccc(C(F)F)c3F)nc(C)nc2cn1` (stereo partly drawn) [Example 117, N-{(1R)-1-[3-(difluoromethyl)-2-fluorophenyl]ethyl}-6-[ethyl(methyl)phosphoryl]-2-methylpyrido[3,4-d]pyrimidin-4-amine], 56.9 nM. Under `Cc1nc(N[C@H](C)c2cccc(C(F)(F)F)c2Cl)c2cc(P(C)(C)=O)ncc2n1` [Example 120, N-{(1R)-1-[2-chloro-3-(trifluoromethyl)phenyl]ethyl}-6-(dimethylphosphoryl)-2-methylpyrido[3,4-d]pyrimidin-4-amine] stands 36.7 nM; under `COC(C)(C)C(F)(F)c1cccc([C@@H](C)Nc2nc(C)nc3cnc(P(C)(C)=O)cc23)c1F` [Example 121, N-{(1R)-1-[3-(1,1-difluoro-2-methoxy-2-methylpropyl)-2-fluorophenyl]ethyl}-6-(dimethylphosphoryl)-2-methylpyrido[3,4-d]pyrimidin-4-amine], 87.1 nM; under `COC(C)(C)C(F)(F)c1cccc([C@@H](C)Nc2nc(C)nc3cnc(P4(=O)CCCC4)cc23)c1F` [Example 122, 1-[4-({(1R)-1-[3-(1,1-difluoro-2-methoxy-2-methylpropyl)-2-fluorophenyl]ethyl}amino)-2-methylpyrido[3,4-d]pyrimidin-6-yl]-1lambda^5-phospholan-1-one], 62.6 nM. The same measure for `CCP(=O)(CC)c1cc2c(N[C@H](C)c3cccc(C(F)(F)C(C)(C)O)c3F)nc(C)nc2cn1` [Example 123, 1-{3-[(1R)-1-{[6-(diethylphosphoryl)-2-methylpyrido[3,4-d]pyrimidin-4-yl]amino}ethyl]-2-fluorophenyl}-1,1-difluoro-2-methylpropan-2-ol]: 59 nM. As for `Cc1nc(N[C@H](C)c2cccc(C(F)(F)CO)c2F)c2cc(P(C)(C)=O)nc(C)c2n1` [Example 124, 2-{3-[(1R)-1-{[6-(dimethylphosphoryl)-2,8-dimethylpyrido[3,4-d]pyrimidin-4-yl]amino}ethyl]-2-fluorophenyl}-2,2-difluoroethan-1-ol], the IC50 came out at 16.7 nM. As for `Cc1nc(N[C@H](C)c2cccc(C(F)F)c2F)c2cc(P(C)(C)=O)c(C(F)(F)F)nc2n1` [Example 125, N-{(1R)-1-[3-(difluoromethyl)-2-fluorophenyl]ethyl}-6-(dimethylphosphoryl)-2-methyl-7-(trifluoromethyl)pyrido[2,3-d]pyrimidin-4-amine], the IC50 came to 44.3 nM. The same measure for `Cc1nc(N[C@H](C)c2cccc(C(F)F)c2F)c2cc(P3(=O)CCCC3)c(C)nc2n1` [Example 126, 1-[4-{{(1R)-1-[3-(difluoromethyl)-2-fluorophenyl]ethyl}amino)-2,7-dimethylpyrido[2,3-d]pyrimidin-6-yl]-1lambda^5-phospholan-1-one]: 9.24 nM; for `Cc1nc(N[C@H](C)c2cccc(C(F)F)c2F)c2cc(P3(=O)CCCC3)ccc2n1` [Example 127, 1-[4-{{(1R)-1-[3-(difluoromethyl)-2-fluorophenyl]ethyl}amino)-2-methylquinazolin-6-yl]-1lambda^5-phospholan-1-one]: 23.4 nM; for `Cc1nc(N[C@H](C)c2cccc(C(F)F)c2F)c2cc(P(C)(C)=O)ccc2n1` [Example 128, N-{(1R)-1-[3-(difluoromethyl)-2-fluorophenyl]ethyl}-6-(dimethylphosphoryl)-2-methylquinazolin-4-amine]: 20.9 nM. The same measure for `Cc1nc(N[C@H](C)c2cccc(C(F)F)c2F)c2cc(P(=O)(C(C)C)C(C)C)c(C)nc2n1` [Example 129, N-{(1R)-1-[3-(difluoromethyl)-2-fluorophenyl]ethyl}-6-[di(propan-2-yl)phosphoryl]-2,7-dimethylpyrido[2,3-d]pyrimidin-4-amine]: 132 nM.

With `CCP(C)(=O)c1cc2c(N[C@H](C)c3cccc(C(F)(F)CO)c3F)nc(C)nc2cn1` (stereo partly drawn) [Example 130, 2-{3-[(1R)-1-{{6-[ethyl(methyl)phosphoryl]-2-methylpyrido[3,4-d]pyrimidin-4-yl}amino)ethyl]-2-fluorophenyl}-2,2-difluoroethan-1-ol], the IC50 worked out at 16.1 nM.
